In PubChem BioAssay AID1996:
≈ marks a conversion by molar mass, not a printed value.

Details: buffer; pH 7.4; 200.0 µM

Going from `CSc1ccccc1C(=O)C1CCCN(S(=O)(=O)N(C)C)C1` (stereo not given) to `O=C(C1CCCC1)N1CCCC(Nc2ccccc2)C1` (stereo not given), the solubility kinetic falls from greater than 51.4 µg/mL to 35.9 µg/mL (≈ 132 µM).

Going from `NCCNC(=O)c1c(NC(=O)c2ccccc2)sc2c1CCCC2` to `O=C(NCCCn1ccnc1)c1cc2c(s1)CCCC2`, the solubility kinetic rises from 41.1 µg/mL (≈ 120 µM) to greater than 43.4 µg/mL.

`CCOC(=O)C1CCN(C(=O)/C=C/c2ccc3c(c2)OCO3)CC1` and `CCOC(=O)N1CCN(CC(=O)Nc2ccc(F)cc2F)CC1` cannot be ordered by solubility kinetic: greater than 49.7 µg/mL for the first, greater than 49.1 µg/mL for the second.

`COC(=O)[C@@H](N)CS.Cl` and `COC(=O)c1c(C)oc(C)c1S(=O)(=O)NCc1ccco1` cannot be ordered by solubility kinetic: greater than 25.7 µg/mL for the first, greater than 47 µg/mL for the second.

Going from `Cc1cccc(NC(=S)N2CCN(c3ccccn3)CC2)c1` to `CC(C(=O)NCc1ccccc1)N1CCN(c2ccc(F)cc2)CC1` (stereo not given), the solubility kinetic rises from 6.7 µg/mL (≈ 21.4 µM) to greater than 51.2 µg/mL.

First: Nc1c(Cl)cnc(C(Cl)(Cl)Cl)c1Cl
Second: Cc1onc(-c2ccccc2Cl)c1C(=O)Nc1ccc(Cl)cn1
The solubility kinetic of the first is 20-fold higher: 19.6 µg/mL (≈ 69.9 µM) for the first, 1 µg/mL (≈ 2.87 µM) for the second.

First: Cc1ccc(NC(=O)C2CCCO2)c(Br)c1 (stereo not given)
Second: Cc1ccc(NC(=O)c2cc(F)c(F)cc2Cl)nc1
The solubility kinetic of the first is 2.9-fold higher: 37.5 µg/mL (≈ 132 µM) for the first, 12.8 µg/mL (≈ 45.3 µM) for the second.

Compared with `N#Cc1cn(N2CCCCC2)c(=O)[nH]c1=O`, `Cc1cc(C(=O)CN2C(=O)NC3(CCCCC3)C2=O)c(C)n1C` is lower in solubility kinetic: greater than 33 µg/mL for the first, 19 µg/mL (≈ 59.9 µM) for the second.

First: COc1ccc2[nH]c(C(=O)NCCc3ccccc3)cc2c1
Second: CC[n+]1ccc(C(=O)NCc2ccccc2)cc1.[Cl-]
The solubility kinetic of the first is lower: 1 µg/mL (≈ 3.4 µM) for the first, greater than 41.5 µg/mL for the second.

`CCN(C(=S)NC(=O)C1CCCC1)C1CCCCC1` and `COc1ccc(NC(=S)NC2CCCCC2)cn1` cannot be ordered by solubility kinetic: greater than 42.4 µg/mL for the first, greater than 39.8 µg/mL for the second.

First: CC1CCCCN1CC(O)COCc1ccc(Cl)cc1 (stereo not given)
Second: CN1CCC(N(C)S(=O)(=O)c2ccc(Cl)cc2)CC1
The solubility kinetic of the first is lower: 29.1 µg/mL (≈ 97.7 µM) for the first, greater than 45.4 µg/mL for the second.

`O=C(c1c(F)cccc1F)N1CCC(O)(c2ccc(F)cc2)CC1` and `CC1C(=O)Nc2ccccc2N1C(=O)c1ccc(O)cc1` (stereo not given) cannot be ordered by solubility kinetic: 49 µg/mL (≈ 146 µM) for the first, greater than 42.3 µg/mL for the second.

Going from `CCN1CCN(C(=O)CSc2ccc(C)cc2)CC1` to `O=C(O)COCC(=O)N1CCN(C(c2ccccc2)c2ccccc2)CC1`, the solubility kinetic rises from 41.2 µg/mL (≈ 148 µM) to greater than 55.3 µg/mL.

Compared with `CC(C)n1c(N)c(C#N)c2ccc([N+](=O)[O-])cc2c1=O`, `Cc1ccc(CCC(=O)Nc2ccc([N+](=O)[O-])cc2Cl)o1` is 4.7-fold higher in solubility kinetic: 1.6 µg/mL (≈ 5.88 µM) for the first, 7.5 µg/mL (≈ 24.3 µM) for the second.

Going from `COC(=O)c1sccc1NC(=O)c1ccc(C(C)C)cc1` to `COc1ccc(C(=O)NC(C)C2CC3CCC2C3)cc1` (stereo not given), the solubility kinetic rises from less than 0.6 µg/mL to 8.1 µg/mL (≈ 29.6 µM).

`O=C(OCC(=O)N1CCOCC1)c1cc(-c2ccccc2)nc2ccccc12` and `O=C(c1cccc(S(=O)(=O)N2CCc3ccccc32)c1)N1CCOCC1` are within 1.5-fold of each other in solubility kinetic: 53.4 µg/mL (≈ 142 µM) for the first, 54.8 µg/mL (≈ 147 µM) for the second.

First: O=C1CCCN1CCCNc1ncccc1[N+](=O)[O-]
Second: Cc1cc(N2CC(C(=O)Nc3nccs3)CC2=O)ccc1C(C)C (stereo not given)
The solubility kinetic of the first is higher: greater than 39.6 µg/mL for the first, 1.4 µg/mL (≈ 4.08 µM) for the second.

Going from `COc1ccc(CNc2nc3ccccc3n2C)c(O)c1` to `Cc1ccc(-c2nc(NCCCO)c3ccccc3n2)cc1`, the solubility kinetic rises from 10.7 µg/mL (≈ 37.8 µM) to 37.3 µg/mL (≈ 127 µM) (3.5-fold).

First: C=CCN(CC(=O)Nc1cccnc1)S(=O)(=O)c1ccc(Cl)cc1
Second: Cc1ccccc1C(=O)Nc1nc(-c2cccnc2)cs1
The solubility kinetic of the first is higher: greater than 54.9 µg/mL for the first, 3.9 µg/mL (≈ 13.2 µM) for the second.

Compared with `CN1C(N)=NC(=O)/C1=C/c1ccc(F)cc1`, `Cc1ccc2cc(/C=C/C(=O)c3ccco3)c(Cl)nc2c1` is lower in solubility kinetic: greater than 32.9 µg/mL for the first, 3.2 µg/mL (≈ 10.7 µM) for the second.

`Cc1nn(CC(=O)NC(C)C)c(C)c1[N+](=O)[O-]` and `O=C(O)c1cc([N+](=O)[O-])ccc1NCc1ccccc1Cl` cannot be ordered by solubility kinetic: greater than 36 µg/mL for the first, 45 µg/mL (≈ 147 µM) for the second.

Compared with `CCOc1ncccc1C(=O)Nc1ccc(F)c(F)c1`, `CCCOc1cccc(C(=O)NCCNC(=O)c2ccc(C)nc2)c1` is higher in solubility kinetic: 6.7 µg/mL (≈ 24.1 µM) for the first, greater than 51.2 µg/mL for the second.

Going from `Cc1c2n(c3ccccc13)CCC2=O` to `COc1cc2ccccc2cc1C(=O)N1CCN(C(C)=O)CC1`, the solubility kinetic rises from 14.1 µg/mL (≈ 76.1 µM) to 46.6 µg/mL (≈ 149 µM) (3.3-fold).

Compared with `CC(C)(C)c1ccc(S(=O)(=O)Nc2noc3ccccc23)cc1`, `Oc1ccc2ccccc2c1C=NCc1ccccc1` is lower in solubility kinetic: greater than 49.6 µg/mL for the first, 10.8 µg/mL (≈ 41.3 µM) for the second.

First: Cc1onc(-c2ccccc2Cl)c1C(=O)N(C)Cc1ccccc1
Second: Cc1onc(-c2ccccc2Cl)c1C(=O)Nc1cccc(S(=O)(=O)N2CCOCC2)c1
The solubility kinetic of the first is higher: greater than 51.1 µg/mL for the first, 2 µg/mL (≈ 4.33 µM) for the second.

First: Cc1cccc(C)c1OCC(=O)Nc1ccccc1C(F)(F)F
Second: O=C(N/N=C/c1ccccc1C(F)(F)F)c1ccc(O)cc1
The solubility kinetic of the first is lower: 1.6 µg/mL (≈ 4.95 µM) for the first, greater than 46.2 µg/mL for the second.

Compared with `CCCCN(C(=O)c1ccco1)C1CCS(=O)(=O)C1` (stereo not given), `N#Cc1cccc(C(=O)OCC(=O)NCc2ccco2)c1` is lower in solubility kinetic: greater than 42.8 µg/mL for the first, 31.2 µg/mL (≈ 110 µM) for the second.

First: Cn1c(N)c(C(=O)COC(=O)Cc2c(F)cccc2Cl)c(=O)n(C)c1=O
Second: Nc1cc(C(=O)OCC(=O)NCCC2=CCCCC2)ccc1Cl
The solubility kinetic of the first is 3.4-fold higher: 31.9 µg/mL (≈ 83.1 µM) for the first, 9.4 µg/mL (≈ 27.9 µM) for the second.

`Nc1cccc(Nc2ccccc2)c1` and `CS/C(N)=N/C(=S)Nc1cccc(Cl)c1` cannot be ordered by solubility kinetic: greater than 27.6 µg/mL for the first, 31.4 µg/mL (≈ 121 µM) for the second.

First: COc1cccc(CN(C)C(=O)C23CC4CC(CC(C4)C2)C3)c1
Second: Cc1cc(C)c2nc(N(CCN(C)C)C(=O)c3ccc4ccccc4c3)sc2c1.Cl
The solubility kinetic of the first is 8.4-fold higher: 19.4 µg/mL (≈ 61.9 µM) for the first, 2.3 µg/mL for the second.
